{
  "source": "patent US20250066300A1",
  "about": "“3-(2-(DIMETHYLAMINO)ETHYL)-1H-INDOL-4-yl OLIGOMERIC DERIVATIVES” (priority 2023, published 2025)",
  "experiment": "Psilocin conversion in the dose formulation (HPLC-MS/MS)",
  "format": "physicochemical",
  "conditions": "saline formulation, final pH 6.3, aliquots stored at −80° C. until analysis",
  "method": "Compounds: Compound 122 was dissolved in saline (1.3 mg/kg) and adjusted to pH 7.4 for SC administration to the neck scruff at a dosing volume of 5 mL/kg. The final pH was checked prior to dosing, and found to be pH 6.3. This dose was selected as it delivered 0.72 mg/kg psilocin (assuming 100% conversion of the pro-drug). Aliquots of the formulation was additionally collected and stored at −80° C. until analysis by high performance liquid chromatography with tandem mass spectrometry (HPLC-MS/MS) to confirm dosing of compound 122 and minimal conversion to psilocin pre-dose (<2.5%).\n[…]. Three aliquots from the dose formulations were diluted to a nominal concentration of 5 μg/mL, and injected in triplicate into the HPLC-MS/MS. The relative percentage of the psilocin peak in the dose formulation compared to the psilocin standard peak at 5 μg/mL, was used to assess for psilocin conversion in the dosing formulations.",
  "data": [
    {"smiles": "CN(C)CCc1c[nH]c2cccc(OC(=O)CCCC(=O)Oc3cccc4[nH]cc(CCN(C)C)c34)c12", "note": "[Compound 122, bis(3-(2-(dimethylamino)ethyl)-1H-indol-4-yl) glutarate]", "values": [
      {"measurement": "conversion to psilocin pre-dose in dose formulation", "value": "< 2.5", "unit": "%"}
    ]}
  ]
}
